Where two headings read alike, the source gives them in different places.
Columns and labels:
501 mel^Vemur cell line = settings: 1.2 mg/kg intravenous
Protocol: (§1) Female athymic nu/nu mice (Harlan Laboratories Models, S.L. Barcelona, Spain or Envigo, Spain) were utilized for all experiments. Animal were housed in individually ventilated cages Sealsafe® Plus, Techmplast S.P.A.), up to ten per cage on a 12-hour light-dark cycle at 21-23 °C and 40-60 % humidity. Mice were allowed free access to irradiated standard rodent diet (Tecklad 2914C) and sterilized water. Animals were acclimated for at least 5 days prior to tumor implantation with a tumor cell suspension.
(§2) The cell line used are: • 501mel • IGR-37 • SK-Mel-28 • WM-266-4 • LOX-IMVI • 501mel^Vemur
(§3) In xenograft studies with cell lines: • Tumour volume was calculated using the equation […], where a: length (longest diameter) and b: width (shortest diameter) were measured in mm by using digital caliper (Fowler Sylvac, S235PAT). Tumour dimensions and body weights were recorded 2-3 times per week starting from the first day of treatment. • When tumors reached ca. 150-250 mm^3, tumour bearing animals (N = 8-10/group) were randomly allocated into the treatment groups, based on body weight and tumour measurements by using NewLab Oncology Software (version 2.25.06.00). • Comparison between median tumour volume of treated and placebo groups was used for evaluation of the antitumoural efficacy. • Animals were euthanized when their tumours reached ca. 1,500 mm^3 and/or severe necrosis was seen.
(§4) Treatments producing >20 % lethality and/or 20% net body weight loss were considered toxic.
(§5) In these experiments, PM14 and Compound IA, as well as placebo, were intravenously administered once per week for 3 consecutive weeks, on days 0, 7 and 14, whenever it was possible.

[1] = tested on: 501mel, 501mel^VemuR or SKMEL28 melanoma cells; settings: weekly IV 1.2mg/kg
Protocol: (§6) To investigate the effects of the aforementioned tested drugs in living organisms, it was decided to examine the impact of PM14 and Compound IA on melanoma cell-derived xenograft (CDXs) mouse models. Human 501mel, 501mel^VemuR or SKMEL28 melanoma cells were subcutaneously implanted into the right flank of NSG mice.
Tumor volumes were monitored following weekly IV treatments of PM14 or Comp IA at a concentration of 1.2mg/kg. Treatments commenced (Day 0) when the tumors reached 150 mm^3 in female NSG mice aged 4 to 6 weeks (N=8/group).

MM074 = assay: Cell viability assay (PrestoBlue), 72h; settings: Homo sapiens
Protocol: (§8) Cells were grown at 37°C in 5% CO2 (10% for Hermes 3A) and were regularly checked for mycoplasma contamination. […] Melanoma cell lines 501mel and SKmel28 were grown in RPMI w/o HEPES (Gibco, Invitrogen) supplemented with 10% FCS and gentamycin. Vemurafenib-resistant cells (501melVemuR and MM074VemuR) were additionally supplemented with 1.5 µM of vemurafenib. Melanoma IGR cell lines (IGR37 and IGR39) were grown in RPMI w/o HEPES (Gibco, Invitrogen) supplemented with 15% FCS and gentamycin.
(§9) To determine the IC50 (half maximal inhibitory concentration) of these cells to various inhibitors, cell viability assays were performed.
(§10) After 72h of treatment with different concentrations of the compounds, cells were treated with PrestoBlue reagent according to the manufacturer's instructions. The absorbance per well was measured with a Cellinsight CX5 microplate reader. Data were analyzed using Prism9 statistical software.

SKMEL-28 = assay: Cell viability assay (PrestoBlue), 72h; settings: Homo sapiens, SK-MEL-28, 72 h
Protocol: as §8, §9, §10

MM099 = assay: Cell viability assay (PrestoBlue), 72h; settings: Homo sapiens
Protocol: (§11) Cells were grown at 37°C in 5% CO2 (10% for Hermes 3A) and were regularly checked for mycoplasma contamination. […] Melanoma IGR cell lines (IGR37 and IGR39) were grown in RPMI w/o HEPES (Gibco, Invitrogen) supplemented with 15% FCS and gentamycin.
as §9, §10

[2] = tested on: 501mel melanoma xenografts; settings: 1.2 mg/kg intravenous
Protocol: as §1, §2, §3, §4, §5
Table 4. Tumour volume evaluation in 501mel melanoma xenografts with PM14 and Compound IA and placebo.

melanoma cells 501mel = assay: Cell cycle analysis by flow cytometry (PI); assay type: cell-based, human; settings: IC50 concentrations
Protocol: For cell cycle analysis, 2×10^6 cells were seeded in 6 well plates. […] After 2 washes with cold PBS, cells were incubated with RNAse A and PI for 1h in the dark, before being analyzed on a BD LSRFortessaTM Flow Cytometer. Data were analysed with FlowJo software.

melanoma cells [3] = assay: Cell proliferation by CellTrace Violet flow cytometry; assay type: cell-based, human; settings: IC50 concentrations, compared to DMSO
Protocol: (§7) After 48h of incubation, cells were rinsed and incubated with AnnexinV-APC (BD Biosciences). Cell proliferation and apoptosis were detected on a BD LSRFortessaTM Flow Cytometer. Data were analyzed with FlowJo software. To define slow proliferating or apoptotic cells: it was considered that slow proliferating cells represented the 30% of cells with the highest concentration of CellTrace Violet signal in the DMSO control. […] For apoptotic cells, it was considered the 20% of cells with the highest signal of AnnexinV-APC in the DMSO control.

melanoma cells [4] = assay: Apoptosis by flow cytometry (AnnexinV-APC); assay type: cell-based, human; settings: IC50 concentrations, Annexin V-APC
Protocol: as §7

MM047 = assay: Cell viability assay (PrestoBlue), 72h; settings: Homo sapiens
Protocol: as §11, §9, §10

[5] = tested on: LOX-IMVI melanoma xenografts; settings: 1.2 mg/kg intravenous
Protocol: as §1, §2, §3, §4, §5
Tumour volume evaluation in LOX-IMVI melanoma xenografts with PM14 and Compound IA and placebo.

[6] = tested on: 501mel, 501mel^VemuR and SKMEL28-derived xenografts; settings: 24h after single IV dose of 1.2 mg/kg
Source text: as §6

COc1c(C)cc2c(c1O)[C@@H]1[C@@H]3[C@@H]4SC[C@]5(N[C@H](CO)Cc6c5oc5ccccc65)C(=O)OC[C@@H](c5c6c(c(C)c(OC(C)=O)c54)OCO6)N3[C@@H](O)[C@H](C2)N1C [Compound IA]
Median Tumour Volume (501 mel^Vemur cell line; days 0, 7 and 14, day 0): 160.3 mm^3 | Median Tumour Volume (501 mel^Vemur cell line; days 0, 7 and 14, day 2): 249 mm^3 | Median Tumour Volume (501 mel^Vemur cell line; days 0, 7 and 14, day 4): 306.8 mm^3 | Median Tumour Volume (501 mel^Vemur cell line; days 0, 7 and 14, day 7): 378.8 mm^3 | Median Tumour Volume (501 mel^Vemur cell line; days 0, 7 and 14, day 9): 417.2 mm^3 | Median Tumour Volume (501 mel^Vemur cell line; days 0, 7 and 14, day 11): 453.7 mm^3 | Median Tumour Volume (501 mel^Vemur cell line; days 0, 7 and 14, day 14): 490.8 mm^3 | Median Tumour Volume (501 mel^Vemur cell line; days 0, 7 and 14, day 16): 517.4 mm^3 | Median Tumour Volume (501 mel^Vemur cell line; days 0, 7 and 14, day 18): 572.1 mm^3 | Median Tumour Volume (501 mel^Vemur cell line; days 0, 7 and 14, day 21): 666.9 mm^3 | Median Tumour Volume (501 mel^Vemur cell line; days 0, 7 and 14, day 23): 703.5 mm^3 | Median Tumour Volume (501 mel^Vemur cell line; days 0, 7 and 14, day 25): 739.3 mm^3 | Median Tumour Volume (501 mel^Vemur cell line; days 0, 7 and 14, day 28): 861.2 mm^3 | Median Tumour Volume (501 mel^Vemur cell line; days 0, 7 and 14, day 30): 986.4 mm^3 | Median Tumour Volume (501 mel^Vemur cell line; days 0, 7 and 14, day 35): 997.4 mm^3 | Median Tumour Volume (501 mel^Vemur cell line; days 0, 7 and 14, day 42): 900.1 mm^3 | Median Tumour Volume (501 mel^Vemur cell line; days 0, 7 and 14, day 44): 982.3 mm^3 | Median Tumour Volume (501 mel^Vemur cell line; days 0, 7 and 14, day 46): 1080 mm^3 | Median Tumour Volume (501 mel^Vemur cell line; days 0, 7 and 14, day 49): 1,169.4 mm^3 | Median Tumour Volume (501 mel^Vemur cell line; days 0, 7 and 14, day 53): 1,262.1 mm^3 | Median Tumour Volume (501 mel^Vemur cell line; days 0, 7 and 14, day 56): 1,521.8 mm^3 | antitumor activity (tumor volumes) versus placebo-treated group ([1]; N=8/group): statistically significant difference | overall survival ([1]; three CDX models): significant increase | IC50 (MM074): 3.81 nM | IC50 (SKMEL-28): 1.74 nM | IC50 (MM099): 1.85 nM | Median Tumour Volume ([2]; days 0, 7 and 14, day 0): 158.5 mm^3 | Median Tumour Volume ([2]; days 0, 7 and 14, day 3): 208.3 mm^3 | Median Tumour Volume ([2]; days 0, 7 and 14, day 5): 279.8 mm^3 | Median Tumour Volume ([2]; days 0, 7 and 14, day 7): 328.5 mm^3 | Median Tumour Volume ([2]; days 0, 7 and 14, day 10): 455.2 mm^3 | Median Tumour Volume ([2]; days 0, 7 and 14, day 12): 614.1 mm^3 | Median Tumour Volume ([2]; days 0, 7 and 14, day 14): 749.8 mm^3 | Median Tumour Volume ([2]; days 0, 7 and 14, day 17): 913 mm^3 | Median Tumour Volume ([2]; days 0, 7 and 14, day 19): 1,233 mm^3 | Median Tumour Volume ([2]; days 0, 7 and 14, day 21): 1,341.4 mm^3 | Median Tumour Volume ([2]; days 0, 7 and 14, day 24): 1,581.4 mm^3 | cell cycle progression (melanoma cells 501mel): notable blockade | melanoma cell proliferation (melanoma cells [3]): significant inhibition | apoptosis (melanoma cells [4]): induction of apoptosis | IC50 (MM047): 1.38 nM | Median Tumour Volume ([5]; days 0, 7 and 14, day 0): 186.2 mm^3 | Median Tumour Volume ([5]; days 0, 7 and 14, day 2): 196.3 mm^3 | Median Tumour Volume ([5]; days 0, 7 and 14, day 4): 138.7 mm^3 | Median Tumour Volume ([5]; days 0, 7 and 14, day 7): 106.8 mm^3 | Median Tumour Volume ([5]; days 0, 7 and 14, day 9): 87.8 mm^3 | Median Tumour Volume ([5]; days 0, 7 and 14, day 11): 56 mm^3 | Median Tumour Volume ([5]; days 0, 7 and 14, day 14): 53.5 mm^3 | Median Tumour Volume ([5]; days 0, 7 and 14, day 16): 54.7 mm^3 | Median Tumour Volume ([5]; days 0, 7 and 14, day 18): 51.4 mm^3 | Median Tumour Volume ([5]; days 0, 7 and 14, day 21): 71.2 mm^3 | Median Tumour Volume ([5]; days 0, 7 and 14, day 23): 99.9 mm^3 | Median Tumour Volume ([5]; days 0, 7 and 14, day 25): 132 mm^3 | Median Tumour Volume ([5]; days 0, 7 and 14, day 28): 597.7 mm^3 | Median Tumour Volume ([5]; days 0, 7 and 14, day 30): 1,158.4 mm^3 | Median Tumour Volume ([5]; days 0, 7 and 14, day 32): 1,098.3 mm^3 | Median Tumour Volume ([5]; days 0, 7 and 14, day 35): 968.8 mm^3 | Median Tumour Volume ([5]; days 0, 7 and 14, day 37): 1,375.6 mm^3 | fraction of apoptotic cells (cleaved caspase-3) [6]: significant increase

— patent EP4563149A1, “LURBINECTEDIN, ECUBECTEDIN AND A RELATED COMPOUND FOR USE IN THE TREATMENT OF SKIN CANCERS” (Pharma Mar, S.A., priority 2023, dated 2025)
